Laboratory results from patent US20210177952A1, “METHOD AND COMPOSITION FOR STIMULATING IMMUNE RESPONSE” (BeyondSpring Pharmaceuticals, Inc., priority 2018, published 2021).
Where two headings read alike, the source gives them in different places.

Tests used:
[1] = mice; cited from earlier work
[2] = human; cited from earlier work
[3] = system: CD4^+ T cells combined with CD14^+ dendritic cells; test: Allogeneic mixed lymphocyte reaction (MLR), IL-2 and IFN-γ by ELISA; format: cell-based, Human
Experimental: Human peripheral CD14 positive monocytes were collected from a human donor and, subsequently, differentiated and matured into CD14^+ dendritic cells (DCs). Human CD4 positive T-cells were separately collected from another human donor. The collected CD4^+ T cells were combined with the CD14^+ DCs in a mixed lymphocyte reaction (MLR). In this Example, a tubulin binding agent was added, respectively, in the step of monocyte differentiation, in the step of dendritic cell maturation, and in the step of T-cell activation by combining the CD14^+ DCs with the CD4^+ T cells.
ISOLATION OF HUMAN CD4^+ T CELLS FROM ANOTHER DONOR'S PBMCs: PBMC cells were obtained from another human donor according to (1a)-(1d) above. CD4^+ T-cells were then isolated from these PBMCs according to steps (3a)-(3k) as follows: (3a) The number of the PBMC cells was determined. (3b) The cell suspension was centrifuged at 300×g for 10 min. The supernatant was then completely aspirated. (3c) The cell pellet was re-suspended in 40 μL of FACS buffer per 10^7 total cells. (3d) 10 μL of CD4^+ T Cell Biotin-Antibody Cocktail was added per 10^7 total cells. (3e) The mixture was well mixed and incubated for 5 min in refrigerator (at 2-8° C.). (3f) 30 μL of FACS buffer was added per 10^7 total cells, and 20 μL of CD4^+ T-Cell MicroBead Cocktail was added per 10^7 total cells. (3g) The mixture was well mixed and incubated for 10 min in refrigerator (at 2 to 8° C.). (3h) A column is placed in magnetic field of a suitable MACS Separator. (3i) The column is prepared by rinsing with 3 mL of buffer. (3j) The cell suspension was applied onto the column. The flow-through containing unlabeled cells, representing the enriched CD4^+ T cells, were collected. […]
ALLOGENEIC ACTIVATION OF T CELLS ASSESSED BY MLR ASSAY: Allogeneic Mixed Lymphocyte Reaction (MLR) assays were performed according to steps (4a)-(4d) as follows: (4a) The test article (e.g., plinabulin and other tubulin binding agents) were each diluted in RPMI 1640 medium according to one of Tables 7-9 and, subsequently, added at 50 μL/well in appropriate wells. […]

[4] = format: in vivo, Mouse, C57BL6; details: 15 mg/kg IP BID, subgroup I group 3, three animals
Experimental: Detailed Clinical Observations: Scheduled detailed clinical observations were not conducted on this study. Unscheduled clinical observations were made on mice flagged by trained personnel during daily moribundity/morbidity checks for any reason.
The remaining subgroups II-V, group 3 animals were dosed at 10 mg/kg (indicated as “*” in Tables 3-4 above). The experimental observations described below in this Example were focused on the lower dose (10-mg/kg) mice.

In the case of `CC(C)(C)c1[nH]cnc1/C=c1\[nH]c(=O)/c(=C/c2ccccc2)[nH]c1=O` [Plinabulin, (3Z,6Z)-3-Benzylidene-6-{[5-(2-methyl-2-propanyl)-1H-imidazol-4-yl]methylene}-2,5-piperazinedione], the plasma elimination half-life [1] is given as 1.5 to 2 h, the plasma elimination half-life [2] is given as 5 to 6 h and the “IL2 secretion in MLR” value ([3]; CD14^+ monocytes treated at 1 or 3 μM during DC differentiation) is given as “decrease in IL2 secretion”. The “IL2 secretion in MLR” value ([3]; DCs treated at 1 or 3 μM during DC maturation) was “increase in IL2 secretion”, the “MLR induced IL-2 secretion” value ([3]; treatment at ≥100 nM began when mature DCs were combined with CD4 T-cells, compared with nivolumab at 2 mg/ml) was “significant increase in MLR induced IL-2 secretion, greater than that of nivolumab” and the “clinical observations within 1 day following test article administration” value [4] was “decreased activity, irregular breathing, dehydration, and body cold to touch”.
